“Also recorded” adds a separate entry of the source.

In one data set the test system is C2C12 myoblasts. The data set is described as follows: C2C12 myoblast fusion in the presence of actin inhibitors. Format: cell-based. As to conditions: C2C12 cells infected with GFP or Myomaker virus, Cytochalasin D 0.3 μM, lantrunculin B 0.1 μM.
The conditions of data set [1]: at 78 weeks, cited from earlier work.
For data set [2] the following is noted: cited from earlier work.
Where [3] appears, read: infantile-onset Pompe disease, compared to untreated historical control population.

On to `C=C1[C@@H](C)[C@H]2[C@H](Cc3ccccc3)NC(=O)[C@]23[C@H](OC(C)=O)/C=C/[C@@](C)(O)C(=O)[C@@H](C)C/C=C/[C@H]3[C@@H]1O` [cytochalasin D], for which, in the data set on C2C12 myoblasts, the myoblast fusion entry is listed as “completely blocked fusion; also recorded: abolished”.
As for `C/C1=C/C(=O)O[C@@H]2C[C@@H](CC[C@H](C)/C=C\CC1)O[C@@](O)([C@@H]1CSC(=O)N1)C2` [lantrunculin B, latrunculin B], the myoblast fusion result in the data set on C2C12 myoblasts is “completely blocked fusion”; in the data set on C2C12 myoblasts (listed as latrunculin B), “abolished”.
On to alglucosidase alfa [Myozyme], for which the “increase in percent predicted forced vital capacity” value in data set [1] (P=0.006 vs placebo) is 1.2%. In addition, the “increase in distance walked in six minutes” value in data set [1] (average, every other week for 18 months, baseline approximately 325 meters, P=0.03 vs placebo) is “approximately 25 meters”. For the same compound, in data set [2] (setting [3]), the overall survival result is “clearly prolongs” and the ventilator-free survival result was “clearly prolongs”. The side effects entry in data set [2] (intravenous infusion) was “fever, flushing, skin rash, increased heart rate and even shock”.

Values taken from patent publication US11471509B2, “Compositions and methods relating to myomaker-induced muscle cell fusion” (The Board of Regents of the University of Texas System, priority 2013, dated 2022).
